Experimental data: patent US5756538A, “Flavonoid and biflavonoid derivatives, their pharmaceutical compositions, their anxiolytic activity” (University of Strathclyde, priority 1993, dated 1998)
Where two headings read alike, the source gives them in different places.

Assays:
mice [1] = assay: Holeboard test (exploratory activity, sedation); assay type: in vivo, mice (male CF1)
Description: (b) Holeboard Test: consisted of a wood box (60×60×30 cm) with four 2 cm diameter holes equidistant in the floor. The number of head-dips and the time spent head-dipping were counted during 5 min. An increase in the number and the time spent head-dipping implies a greater exploratory activity.
(§1) All the injections were given intraperitoneally (i.p.). […] Testing was carried out `blind`. All data were submitted to analysis of variance (ANOVA).

mice [2] = assay: Horizontal wire test (muscle relaxation); assay type: in vivo, mice (male CF1)
Description: (d) Horizontal Wire Test: It consisted of an horizontally strung wire (1 mm diameter, 15 cm long), placed at 20 cm from the table. Mice were lifted by the tail, allowed to grasp the wire with their forepaws and released. […] After two trials, performed at 5 min. intervals, the test took place. A myorelaxant drug, like diazepam at high doses, will impair the ability of mice to grasp the wire. Generally, this state of muscle relaxation is commonly associated with sedation.
as §1
The test took place after two trials, executed after a 5 min interval.

[3] = Medina et al. 1990; cited from earlier work
mice [4] = assay: Locomotor activity test (OPTO-VARIMEX); settings: 0.6-1 mg/kg i.p., 20 min after injection
Description: Male CF1 mice from our breeding stock weighing 28-35 g were used. The animals were placed in groups of 10-12 with free access to water and food, and maintained on a 12 h/12 h day-night cycle.
Diazepam (DZ; Hoffman-La Roche) and the flavonoids were dissolved in DMSO 40%, NaOH 0.1N (7:3: v/v) at pH 8.2 Control animals were injected with the same vehicle (VEH). RO 15-1788 (Hoffmann-La Roche) was suspended in DMSO 10%, propyleneglycol 10% in distilled water.
(c) Locomotor Activity Test: we used an OPTO-VARIMEX apparatus consisting of a glass box (36×15×20 cm) and two lateral bars with 15 light beams (0.32 cm diameter, beam spacing 2.65 cm). The apparatus detects automatically all the mouse movements, and discriminates between total and ambulatory activity. The locomotor activity (number of movements across the beams) was counted during 5 min. An increase in the number of transitions through the beams reflects an augmented locomotor activity.
The general procedure for all the tests is as follows: mice were injected with vehicle or the drug solution 20 min before the beginning of the test and put into another home cage. Ro 15-1788, a specific BZD receptor antagonist was injected 10 min before the tested drug. All the injections were given intraperitoneally (i.p.). Control mice were tested in each session, in parallel with those animals receiving the test drug or diazepam. Testing was carried out `blind`. All data were submitted to analysis of variance (ANOVA). Post-hoc comparisons between individual treatments and controls were made using Dunnett's t-test.
FIGS. 15, 16, 17 and 18 show ambulatory locomoter activity counts during a 5 min. test session in an OPTO-Varimex apparatus, 20 min. after i.p. injection with a mixture of brominated flavones (0.6,1,3 mg/kg), FIG. 15; 2' chlorinated chrysin (1,3 mg/kg); FIG. 16; 2' fluorinated chrysin (3 mg/kg), FIG. 17; 6,8 dibromoflavone, FIG. 18. Data are expressed as medians (interquartile range) of (n) number of animals.

benzodiazepine receptor = assay: Competitive inhibition of 3H-flunitrazepam binding to benzodiazepine receptor (cerebral cortical membranes); parameters: species or system bovine
Description: (Competitive inhibition of H^3 -flunitrazepam to benzodiazepine receptor)
Binding of 3H-flunitrazepam (0.7 nM) to the benzodiazepine receptor was carried out in extensively washed cerebral cortical membranes.
H^3 -flunitrazepam has a Ki of […] to the benzodiazepine receptor.
IC50 values were obtained using flavonoids at different concentrations (10^-10 to 10^-3 M).
Structure - activity relationships of several flavonoids on
the ^3 H Flunitrazepam binding to bovine brain membranes.

[5] = system: locus coeruleus noradrenaline; assay: Noradrenaline levels in locus coeruleus after immobilization stress; assay type: in vivo, rats; settings: 1 mg/kg i.p., 30 min before 90-min stress session
Description: Rats were submitted to a 90-minute immobilization stress session in a plastic cylinder. The locus coeruleus was dissected out after killing by decapitation and noradrenaline assessed by HPLC with electrochemical detection. Doses were 1 mg/kg for each substance, injected i.p., 30 minutes before the stress session.

benzodiazepine receptors = settings: Medina et al. 1990; cited from earlier work
mice [6] = assay: Elevated plus maze (anxiety); assay type: in vivo, mice (male CF1); settings: for Total arm entries: 5 min test, mean ± S.E.M.
Description: (a) Elevated Plus Maze: consisted of 4 perpendicularly disposed wood arms (20×5 cm; two had 35 cm high wood walls, and two were open) linked by a central 10×10 cm square. The maze was suspended 50 cm from the room floor. Animals were placed on the central part of the maze facing a closed arm. This test has been widely validated to measure anxiety in rodents. The number of entries into and the time spent in the open and closed arms were counted during 5 min. […] Total exploratory activity (number of entries in both arms) was also determined.
as §1

[7] = 1 mg/kg i.p., 20 min after injection

O=c1cc(-c2ccccc2)oc2cc(O)cc(O)c12 [chrysin, 5,7-dihydroxyflavone]
Time spent head-dipping (mice [1]; 3 mg/kg i.p.): significant increase in the time spent head-dipping
Sedative effects (mice [1]; 10 mg/kg i.p.): did not elicit sedative effects
Sedation (summary) (mice [1]; i.p.): did not exhibit sedation
Effect in horizontal wire test / muscle relaxant effect (mice [2]; 0.6-30 mg/kg i.p.): ineffective in the same test and produced no muscle relaxant effect
Muscle relaxation (summary) (mice [2]; i.p.): did not exhibit sedation or muscle relaxation
Anticonvulsant properties [3]: anticonvulsant properties
Locomotor activity (mice [4]): significant increase in locomotor activity
Benzodiazepine ligand behaviour / affinity relative to 3H-flunitrazepam (benzodiazepine receptor): benzodiazepine ligand behaviour similar to that of ^3 H-flunitrazepam
IC50 (benzodiazepine receptor; 3H-flunitrazepam 0.7 nM, read-out: IC50 at the benzodiazepine receptor): 700 to 3000 nM
IC50 (benzodiazepine receptor; bovine brain membranes, 0.7 nM 3H-flunitrazepam, read-out: 3H Flunitrazepam binding IC50): 2000 nM
Noradrenaline decrease in locus coeruleus provoked by immobilization stress [5]: dampened the noradrenaline decrease
Potency vs diazepam on stress-provoked noradrenaline decrease [5]: almost equipotent with diazepam
Binding properties for benzodiazepine receptors (benzodiazepine receptors): binding properties for benzodiazepine receptors
Percentage of entries in the open arms (mice [6]; [7]): increase in both parameters (p<0.01)
Percentage of the time spent on the open arms (mice [6]; [7]): increase in both parameters (p<0.01)
Total arm entries (mice [6]; [7]): 9.9 ± 0.8
Total arm entries (mice [6]; 3 mg/kg i.p., 20 min after injection): 8.7 ± 1.1
Total arm entries (mice [6]; 10 mg/kg i.p., 20 min after injection): 10.2 ± 1.1
Total arm entries, with and without RO 15-1788 (mice [6]; chrysin 1 mg/kg, RO 15-1788 3 mg/kg, F (2,49)=3.18): No significant differences were found
Anxiolytic effect in the elevated plus maze (mice [6]; i.p.): had anxiolytic effects
Total arm entries, difference from controls (mice [6]; i.p., doses of Table I): No differences were observed
Anxiolytic effect in the elevated plus maze (mice [6]; i.p., listed as CHRY): displayed an anxiolytic effect
